A short description of data set [1]: Single dose intraperitoneal pharmacokinetics in CD-1 mice, plasma concentration by HPLC-MS. The format is in vivo. Here is the method:
The intraperitoneal bioavailability was determined in the following study: three CD-1 female mice were dosed by intraperitoneal injection (10 mg/kg) and plasma collected at the following hourly time points (0.083, 0.25, 0.5, 1, 2, […] and 24h). Plasma concentration was determined by HPLC-MS.
Table 1 illustrates pharmacokinetic properties of the Example 3 compound in CD-1 mice (n=3) after a single intraperitoneal dose of 10 mg/kg.

Another data set relates to PC3 cells. Nature of the data set: PC3 cell line clonogenic (colony formation) assay. The format is cell-based. The settings on record: 3.3 μM or 10 μM, 10-14 days, versus DMSO control. Here is the method:
PC3 cells are routinely maintained in RPMI 1640 media. Cell growth is determined using crystal violet staining. Cells are initially seeded at density of 1000 to 2000 cells per well in 6-well plates. 24 hours post-seeding, cells are treated with DMSO control, enzalutamide, RU-486 or various GR degraders at 3.3 μM or 10 μM concentration. Cells are allowed to grow under regular growth conditions for 10-14 days. Cells are then fixed with 80% MeOH and stained with crystal violet solution (0.05%) overnight. Plates are then washed in water, dried and scanned.

A further data set concerns DU145 cells. The data set is described as follows: DU145 cell line proliferation assay (Incucyte confluency). Format: cell-based. The settings on record: 1 μM, 3.3 μM or 10 μM, 5 days, versus DMSO control. Here is the method:
DU145 cells are routinely maintained in RPMI 1640 media. Proliferation is determined using a real time cell imaging device, Incucyte. Cells are initially seeded at density of 2000 cells per well in 96-well plates. 24 hours post-seeding, cells are treated with DMSO control or GR degraders at 1 μM, 3.3 μM or 10 μM concentration. Cells are allowed to grow under regular growth conditions for 5 days while being monitored and imaged every four hours by Incucyte. Confluency of cells, a surrogate for proliferation, is calculated and plotted.

Data set [2] has as its system VCaP prostate cancer cells. Nature of the data set: In vivo anti-tumor efficacy, VCaP castration resistant prostate cancer xenograft model. The arrangement: species or system Male CB17 SCID Mice. The settings on record: castrated CB17 SCID mice, Example 3 100 mg/kg + enzalutamide 10 mg/kg IP once daily. Here is the method: 1×10^7 VCaP cells were injected into the flanks of male CB17 SCID Mice. Tumor take was monitored visually and by palpation bi-weekly. Once tumors reached 200 mm^3 mice were castrated. Once tumors stopped shrinking, mice were randomized into control and different treatment groups for 26 days. Treatment cohorts are as follows: • a. Vehicle is 5% Cremophor: 5% Ethanol in saline, (n=10 animals) • b. GR degrader example #3 (100 mg/kg) IP once daily in 5% Cremophor: 5% Ethanol in saline (n=10 animals) • c. Enzalutamide (10 mg/kg) IP once daily in 5% Cremophor: 5% Ethanol in saline (n=10 animals) • d. GR degrader example #3 (100 mg/kg)+Enzalutamide (10 mg/kg) IP once daily in 5% Cremophor: 5% Ethanol in saline (n=10 animals)
Tumor diameter and volume were calculated based on caliper measurements of tumor length and […] using the formula tumor volume=(length×width^2)/2. Tumor volume and body weight were measured three times a week.

For data set [3], the system named is TRAMP-C1 prostate cancer cells. The data set is described as follows: In vivo anti-tumor efficacy, TRAMP-C1 tumors in immunocompetent mice. The arrangement: species or system male C57/Bl6 mice. The settings on record: C57/Bl6 mice, Example 3 100 mg/kg + anti-PD1 antibody 200 μg IP once daily, 7 days. Here is the method:
TRAMP-C1 cells (5×10^6) were injected into the flanks of male C57/Bl6 mice. Tumor take was monitored visually and by palpation bi-weekly. Once tumors reached 200 mm^3 mice were randomized into control and different treatment groups for 7 days. Treatment cohorts are as follows: • a. Vehicle is 5% Cremophor: 5% Ethanol in saline, (n=10 animals) • b. GR degrader Example #3 (100 mg/kg) IP once daily in 5% Cremophor: 5% Ethanol in saline (n=10 animals) • c. Anti-PD1 antibody, clone RMP1-14 (200 μg) IP once daily in 5% Cremophor: 5% Ethanol in saline (n=10 animals) • d. GR degrader Example #3 (100 mg/kg)+Anti-PD1 antibody (200 μg) IP once daily in 5% Cremophor: 5% Ethanol in saline (n=10 animals)
Tumor diameter and volume were calculated based on caliper measurements of tumor length and […] using the formula tumor volume=(length×width^2)/2. Tumor volume and body weight were measured three times.

Data set [4] is described as follows: Single dose intraperitoneal pharmacokinetics in CD-1 mice, plasma concentration by HPLC-MS. The format is in vivo. The settings on record: 10 mg/kg IP.
The mark [5] stands for this setting: female, mouse, ip, CD-1 mice (n=3), single intraperitoneal dose of 10 mg/kg.

This note sets out measurements from patent US11998606B2, “Compounds and methods for selective proteolysis of glucocorticoid receptors” (Board of Regents, The University of Texas System, priority 2018, dated 2024).

“And” between values parts separate entries of the source, which are not always exact repeats. Equal entries are not always repeated. Where two headings read alike, the source gives them in different places.

As a reminder, the AUC(0-t) is exposure summed from dosing to a finite time, without extrapolation to infinity. Low readings indicate low exposure, high ones high exposure. In general, Cmax refers to the maximum level reached in the sampled fluid or tissue. A word on the Tmax: it is the time from dosing to the highest level. In the case of `CC#C[C@]1(O)CC[C@H]2[C@@H]3CCC4=CC(=O)CCC4=C3[C@@H](c3ccc(N(C)CCCC(=O)N4CCN(C(=O)OC(C)(C)C)CC4C(=O)N4CCN(C(=O)OC(C)(C)C)CC4C(=O)NCCCOCCOCCOCCCNc4cccc5c4C(=O)N(C4CCC(=O)NC4=O)C5=O)cc3)C[C@@]21C` (stereo partly drawn) [Example 3, tert-Butyl-4-(4-(tert-butoxycarbonyl)-1-(4-((4-((8S,11R,13S,14S,17S)-17-hydroxy-13-methyl-3-oxo-17-(prop-1-yn-1-yl)-2,3,6,7,8,11,12,13,14,15,16,17-dodecahydro-1H-cyclopenta[a]phenanthren-11-yl)phenyl)(methyl)amino)butanoyl)piperazine-2-carbonyl)-3-((3-(2-(2-(3-((2-(2,6-dioxopiperidin-3-yl)-1,3-dioxoisoindolin-4-yl)amino)-propoxy)ethoxy)ethoxy)propyl)carbamoyl)piperazine-1-carboxylate], the concentration at 0.5 h in data set [1] (0.083 hr, 10 mg/kg IP, CD-1 mice, individual animals, 10 mg/kg, read-out: Individual concentration) is 72.2 nM and 135 nM; in data set [1] (0.25 hr, 10 mg/kg IP, CD-1 mice, individual animals, 10 mg/kg, read-out: Individual concentration) it was 283 nM and 93 nM and 173 nM; in data set [1] (0.5 hr, 10 mg/kg IP, CD-1 mice, individual animals, 10 mg/kg, read-out: Individual concentration), 652 nM and 939 nM; in data set [1] (1 hr, 10 mg/kg IP, CD-1 mice, individual animals, 10 mg/kg, read-out: Individual concentration), 1010 nM and 147 nM and 358 nM; in data set [1] (2 hr, 10 mg/kg IP, CD-1 mice, individual animals, 10 mg/kg, read-out: Individual concentration), 1480 nM and 2870 nM; in data set [1] (24 hr, 10 mg/kg IP, CD-1 mice, individual animals, 10 mg/kg, read-out: Individual concentration) it was 505 nM and 617 nM. Moreover, the concentration at 0.5 h was determined as 727 nM in data set [1] (female, CD-1, mouse, ip, 10 mg/kg, 0.5 hr, 10 mg/kg IP, CD-1 mice, individual animals, read-out: Individual concentration) and 773 nM in data set [1] (female, CD-1, mouse, ip, 10 mg/kg, 0.5 hr, 10 mg/kg IP, CD-1 mice, n=3, read-out: Mean concentration). The concentration at 0.083 h amounted to 114 nM in data set [1] (female, CD-1, mouse, ip, 10 mg/kg, 0.083 hr, 10 mg/kg IP, CD-1 mice, individual animals, read-out: Individual concentration) and 107 nM in data set [1] (female, CD-1, mouse, ip, 10 mg/kg, 0.083 hr, 10 mg/kg IP, CD-1 mice, n=3, read-out: Mean concentration). Besides, in data set [1] (female, CD-1, mouse, ip, 10 mg/kg, 0.25 hr, 10 mg/kg IP, CD-1 mice, n=3), the concentration at 0.25 h is 183 nM. In data set [1] (female, CD-1, mouse, ip, 10 mg/kg, 1 hr, 10 mg/kg IP, CD-1 mice, n=3), this compound had a concentration at 1 h of 505 nM. Further, the concentration at 2 h amounted to 2240 nM in data set [1] (female, CD-1, mouse, ip, 10 mg/kg, 2 hr, 10 mg/kg IP, CD-1 mice, individual animals, read-out: Individual concentration) and 2200 nM in data set [1] (female, CD-1, mouse, ip, 10 mg/kg, 2 hr, 10 mg/kg IP, CD-1 mice, n=3, read-out: Mean concentration). The concentration at 4 h came out at 3300 nM in data set [1] (female, CD-1, mouse, ip, 10 mg/kg, 10 mg/kg IP, CD-1 mice, individual animals, read-out: Individual concentration) and 3240 nM in data set [1] (female, CD-1, mouse, ip, 10 mg/kg, 10 mg/kg IP, CD-1 mice, n=3, read-out: Mean concentration). Moreover, the concentration at 24 h in data set [1] (female, CD-1, mouse, ip, 10 mg/kg, 24 hr, 10 mg/kg IP, CD-1 mice, individual animals, read-out: Individual concentration) amounted to 440 nM; in data set [1] (female, CD-1, mouse, ip, 10 mg/kg, 24 hr, 10 mg/kg IP, CD-1 mice, n=3, read-out: Mean concentration), 521 nM. In data set [1] (setting [5]), this compound displayed an AUC(0-t) of 46.2 µM·h. For the same compound, the highest level in data set [1] (setting [5]) (Cmax) was 3240 nM. For the same compound, in data set [1] (setting [5]), the Tmax was 4 h. Also, the “Colony formation (crystal violet staining)” value in the data set with PC3 cells was “inhibited colony formation”. The “Proliferation (confluency)” value in the data set on DU145 cells is “displays efficacy against DU145 cancer cells”. Also, the “Xenograft tumor growth, combination with enzalutamide” value in data set [2] is “synergizes with enzalutamide to inhibit growth of prostate cancer”. In data set [3], the “Tumor growth, combination with anti-PD1 antibody” value is “synergizes with anti-PD1 antibody to inhibit growth of prostate cancer”. Moreover, the concentration at 8 h in data set [4] (4 hr, individual animals, read-out: Individual concentration) was 3220 nM and 3210 nM; in data set [4] (8 hr, individual animals, read-out: Individual concentration), 2980 nM and 2610 nM; in data set [4] (female, CD-1, mouse, ip, 10 mg/kg, 8 hr, individual animals, read-out: Individual concentration), 2900 nM; in data set [4] (female, CD-1, mouse, ip, 10 mg/kg, 8 hr, n=3, read-out: Mean concentration), 2830 nM.
Take `CNC(=O)c1ccc(N2C(=S)N(c3ccc(C#N)c(C(F)(F)F)c3)C(=O)C2(C)C)cc1F` [enzalutamide, reference compound]: the “Colony formation (crystal violet staining)” value with PC3 cells is on record as “did not differ significantly from control”. Besides, in the data set on DU145 cells, the “Proliferation (confluency)” value is recorded as “did not differ significantly from control”.
